Test results reported in patent US20160122305A1, “Topical Compositions and Methods of Use Thereof” (Avon Products, Inc., priority 2014, published 2016).
Where two headings read alike, the source gives them in different places.

Experiments:
α2A adrenergic receptor = biological target: T1, α2A adrenergic receptor (Homo sapiens, UniProt P08913); assay: SelectScreen cell-based GPCR profiling, α2A agonist assay; settings: 5 hours incubation, fluorescence read
T1 sequence (P08913 1-465): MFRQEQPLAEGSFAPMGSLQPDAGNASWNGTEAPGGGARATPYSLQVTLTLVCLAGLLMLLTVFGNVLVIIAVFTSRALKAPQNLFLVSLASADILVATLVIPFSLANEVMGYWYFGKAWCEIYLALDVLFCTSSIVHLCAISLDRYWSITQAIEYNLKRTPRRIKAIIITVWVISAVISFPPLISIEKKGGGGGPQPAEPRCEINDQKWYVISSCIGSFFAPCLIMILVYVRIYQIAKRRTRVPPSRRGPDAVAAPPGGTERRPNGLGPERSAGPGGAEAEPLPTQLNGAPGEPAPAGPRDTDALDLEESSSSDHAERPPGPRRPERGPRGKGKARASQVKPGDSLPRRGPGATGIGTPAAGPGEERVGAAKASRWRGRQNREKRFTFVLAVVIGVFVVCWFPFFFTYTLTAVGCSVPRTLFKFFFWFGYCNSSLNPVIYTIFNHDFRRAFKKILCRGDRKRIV
Experimental: (§1) The Compounds of Formulas (III)-(V) were subjected to an in vitro screening against α1A, α2A, and β2 adrenergic receptors using SelectScreen® Cell-based GPCR Profiling Service from Life Technologies. In each of the three agonist assays (α1A, α2A, and β2), cells were thawed and resuspended in Assay Media (DMEM, 10% dialyzed FBS, 25 mM HEPES pH 7.3, 0.1 mM NEAA, 100 U/mL/100 μg/mL Pen/Strep) to a concentration of 312,500 cells/mL. 32 μL of cell suspension (10,000 cells) were added to each well of a 384-well TC-Treated assay plate. Cells in Assay Media were incubated for 16-24 hours in the plate at 37° C./5% CO2 in a humidified incubator. 4 μL of a 10× serial dilution of a control agonist (phenylephrine for α1A; UK 14304 for α2A; isoproterenol for β2) or a Compound III-V were added to appropriate wells of the plate. 4 μL of Assay Media was added to all wells to bring the final assay volume to 40 μL. The plate was incubated for 5 hours at 37° C./5% CO2 in a humidified incubator. 8 μL of 1 μM Substrate+Loading Solution was added to each well and the plate was incubated for 2 hours at room temperature. The plate was read on a fluorescence plate reader.

β2 adrenergic receptor = β2 adrenergic receptor (Homo sapiens, UniProt P07550); assay: SelectScreen cell-based GPCR profiling, β2 agonist assay; settings: 5 hours incubation, fluorescence read
Experimental: as §1

α1A adrenergic receptor = biological target: T2, α1A adrenergic receptor (Homo sapiens, UniProt P35348); assay: SelectScreen cell-based GPCR profiling, α1A agonist assay; settings: for selectivity of agonism (α1A and/or α2A EC50 less than 1,000 nM and insignificant activity at β2): classification in words from Table 1 EC50 values, insignificant β2 activity = EC50 greater than about 500 nM
T2 sequence (P35348 1-466): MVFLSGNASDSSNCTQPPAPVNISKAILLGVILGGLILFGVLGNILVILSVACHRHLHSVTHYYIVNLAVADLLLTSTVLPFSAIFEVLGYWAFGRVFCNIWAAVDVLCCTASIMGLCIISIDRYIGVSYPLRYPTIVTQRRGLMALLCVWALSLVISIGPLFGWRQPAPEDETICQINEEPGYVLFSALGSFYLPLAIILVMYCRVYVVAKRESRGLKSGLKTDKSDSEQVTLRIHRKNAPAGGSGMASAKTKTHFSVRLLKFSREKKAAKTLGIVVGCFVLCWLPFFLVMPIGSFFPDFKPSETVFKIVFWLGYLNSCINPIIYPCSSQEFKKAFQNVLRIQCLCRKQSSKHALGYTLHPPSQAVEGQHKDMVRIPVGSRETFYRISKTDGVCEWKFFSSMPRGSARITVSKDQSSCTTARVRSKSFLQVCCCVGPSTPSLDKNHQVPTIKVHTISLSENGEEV
Experimental: 32 μL of cell suspension (10,000 cells) were added to each well of a 384-well TC-Treated assay plate. Cells in Assay Media were incubated for 16-24 hours in the plate at 37° C./5% CO2 in a humidified incubator. […] 4 μL of Assay Media was added to all wells to bring the final assay volume to 40 μL. The plate was incubated for 5 hours at 37° C./5% CO2 in a humidified incubator. 8 μL of 1 μM Substrate+Loading Solution was added to each well and the plate was incubated for 2 hours at room temperature. The plate was read on a fluorescence plate reader.

[1] = agonist assay, 5 hours incubation, fluorescence read, read-out: α1A Activity, EC50

Sequence of β2 adrenergic receptor (P07550 whole entry): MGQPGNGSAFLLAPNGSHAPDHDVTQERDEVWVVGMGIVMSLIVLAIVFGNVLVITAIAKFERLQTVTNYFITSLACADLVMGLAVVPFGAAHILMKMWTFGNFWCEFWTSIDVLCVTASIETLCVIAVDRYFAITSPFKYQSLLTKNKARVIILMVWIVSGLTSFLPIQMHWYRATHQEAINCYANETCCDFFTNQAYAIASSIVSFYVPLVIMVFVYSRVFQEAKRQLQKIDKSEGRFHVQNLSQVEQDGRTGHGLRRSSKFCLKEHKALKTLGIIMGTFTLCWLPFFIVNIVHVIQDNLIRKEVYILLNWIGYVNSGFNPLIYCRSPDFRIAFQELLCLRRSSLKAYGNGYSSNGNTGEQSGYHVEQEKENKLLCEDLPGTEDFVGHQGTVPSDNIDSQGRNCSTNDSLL

SMILES	EC50 (α2A adrenergic receptor) [µM]	EC50 (β2 adrenergic receptor) [µM]	EC50 (α1A adrenergic receptor) [µM]	EC50 (α1A adrenergic receptor; [1]) [µM]	selectivity of agonism (α1A and/or α2A EC50 less than 1,000 nM and insignificant activity at β2) (α1A adrenergic receptor)
CC(Oc1ccccc1C1CCCC1)C1=NCCN1 (centres unmarked) [Compound III]	0.0187	> 6.3	< 0.000119	–	–
CC(Oc1ccccc1-c1cccnc1)C1=NCCN1 (centres unmarked) [IV]	> 25	> 25	–	0.013	selective α1A receptor agonist
CC(Oc1ccccc1/C=N/O)C1=NCCN1 (centres unmarked) [V]	0.277	> 63	–	0.0326	selective α1A and α2A receptor agonist
